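Method: 48-hour compound exposure of cells in 96-well plates, five concentrations, linear interpolation of endpoints. The concentration for 50% growth inhibition is given as GI50.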 The source made the active and inactive calls. Rule as the data show it: active = GI50 up to about 1.1 µM and inactive = higher.
Columns and labels:
Assay in all cases: NCI anticancer screen, dose series, 48 h
786-0 = tested on: 786-0
A498 = tested on: A498
A549 = tested on: A549
ACHN = tested on: ACHN
BT-549 = tested on: BT-549
CAKI-1 = tested on: CAKI-1
CCRF-CEM = tested on: CCRF-CEM
COLO 205 = tested on: COLO 205
DU-145 = tested on: DU-145
EKVX = tested on: EKVX
HCT-116 = tested on: HCT-116
HCT-15 = tested on: HCT-15
HL-60 = tested on: HL-60
HOP-62 = tested on: HOP-62
HOP-92 = tested on: HOP-92
HT-29 = tested on: HT-29
Hs-578T = tested on: Hs-578T
IGROV-1 = tested on: IGROV-1
K562 = tested on: K562
KM12 = tested on: KM12
M14 = tested on: M14
MCF7 = tested on: MCF7
MDA-MB-231 = tested on: MDA-MB-231
MDA-MB-435 = tested on: MDA-MB-435
MDA-N = tested on: MDA-N
MOLT-4 = tested on: MOLT-4
Malme-3M = tested on: Malme-3M
NCI-H23 = tested on: NCI-H23
NCI-H460 = tested on: NCI-H460
NCI-H522 = tested on: NCI-H522
NCI/ADR-RES = tested on: NCI/ADR-RES
OVCAR-3 = tested on: OVCAR-3
OVCAR-4 = tested on: OVCAR-4
OVCAR-5 = tested on: OVCAR-5
OVCAR-8 = tested on: OVCAR-8
PC-3 = tested on: PC-3
RPMI-8226 = tested on: RPMI-8226
RXF 393 = tested on: RXF 393
SF-268 = tested on: SF-268
SF-295 = tested on: SF-295
SF-539 = tested on: SF-539
SK-MEL-28 = tested on: SK-MEL-28
SK-MEL-2 = tested on: SK-MEL-2
SK-MEL-5 = tested on: SK-MEL-5
SK-OV-3 = tested on: SK-OV-3
SN12C = tested on: SN12C
SNB-19 = tested on: SNB-19
SR = tested on: SR
SW-620 = tested on: SW-620
T47D = tested on: T47D
TK-10 = tested on: TK-10
U-251 = tested on: U-251
UACC-257 = tested on: UACC-257
UACC-62 = tested on: UACC-62
UO-31 = tested on: UO-31
LOX IMVI = tested on: LOX IMVI
NCI-H226 = tested on: NCI-H226

Question: How did the GI50 (786-0) turn out when `Cc1cc(C)n(CN(Cn2nc(C)cc2C)c2ccc(N(Cn3nc(C)cc3C)Cn3nc(C)cc3C)cc2)n1` was run?
Answer: 19.3 µM (inactive)

Question: What about the GI50 (A498) of the same compound?
Answer: 22.2 µM (inactive)

Question: And the GI50 (A549)?
Answer: 28 µM (inactive)

Question: What about the GI50 (ACHN) of the same compound?
Answer: 17.3 µM (inactive)

Question: What about the GI50 (BT-549) of the same compound?
Answer: 19.2 µM (inactive)

Question: And the GI50 (CAKI-1)?
Answer: 26.1 µM (inactive)

Question: And the GI50 (CCRF-CEM)?
Answer: 14.4 µM (inactive)

Question: What about the GI50 (COLO 205) of the same compound?
Answer: 17.7 µM (inactive)

Question: And the GI50 (DU-145)?
Answer: 25.9 µM (inactive)

Question: And the GI50 (EKVX)?
Answer: 26.9 µM (inactive)

Question: What about the GI50 (HCT-116) of the same compound?
Answer: 17.5 µM (inactive)

Question: And the GI50 (HCT-15)?
Answer: 21.5 µM

Question: And the GI50 (HL-60)?
Answer: 30.5 µM (inactive)

Question: And the GI50 (HOP-62)?
Answer: 25.8 µM (inactive)

Question: And the GI50 (HOP-92)?
Answer: 23.9 µM (inactive)

Question: What about the GI50 (HT-29) of the same compound?
Answer: 21.9 µM (inactive)

Question: What about the GI50 (Hs-578T) of the same compound?
Answer: 18.2 µM (inactive)

Question: What about the GI50 (IGROV-1) of the same compound?
Answer: 31.6 µM (inactive)

Question: What about the GI50 (K562) of the same compound?
Answer: 18.7 µM (inactive)

Question: And the GI50 (KM12)?
Answer: 24.2 µM (inactive)

Question: What about the GI50 (M14) of the same compound?
Answer: 20 µM (inactive)

Question: And the GI50 (MCF7)?
Answer: 20.3 µM (inactive)

Question: What about the GI50 (MDA-MB-231) of the same compound?
Answer: 45.7 µM (inactive)

Question: And the GI50 (MDA-MB-435)?
Answer: 17.7 µM (inactive)

Question: What about the GI50 (MDA-N) of the same compound?
Answer: 18.9 µM (inactive)

Question: What about the GI50 (MOLT-4) of the same compound?
Answer: 28 µM (inactive)

Question: What about the GI50 (Malme-3M) of the same compound?
Answer: 22.3 µM (inactive)

Question: And the GI50 (NCI-H23)?
Answer: 21.2 µM (inactive)

Question: What about the GI50 (NCI-H460) of the same compound?
Answer: 24.6 µM (inactive)

Question: What about the GI50 (NCI-H522) of the same compound?
Answer: 20.2 µM (inactive)

Question: What about the GI50 (NCI/ADR-RES) of the same compound?
Answer: 19.1 µM (inactive)

Question: And the GI50 (OVCAR-3)?
Answer: 25.5 µM (inactive)

Question: And the GI50 (OVCAR-4)?
Answer: 17.2 µM (inactive)

Question: What about the GI50 (OVCAR-5) of the same compound?
Answer: 24.7 µM (inactive)

Question: And the GI50 (OVCAR-8)?
Answer: 27.4 µM (inactive)

Question: And the GI50 (PC-3)?
Answer: 23.7 µM (inactive)

Question: What about the GI50 (RPMI-8226) of the same compound?
Answer: 13.4 µM (inactive)

Question: What about the GI50 (RXF 393) of the same compound?
Answer: 20 µM (inactive)

Question: And the GI50 (SF-268)?
Answer: 24.8 µM (inactive)

Question: What about the GI50 (SF-295) of the same compound?
Answer: 30.8 µM (inactive)

Question: What about the GI50 (SF-539) of the same compound?
Answer: 18.1 µM (inactive)

Question: And the GI50 (SK-MEL-28)?
Answer: 18.7 µM (inactive)

Question: And the GI50 (SK-MEL-2)?
Answer: 23.1 µM (inactive)

Question: What about the GI50 (SK-MEL-5) of the same compound?
Answer: 16.5 µM (inactive)

Question: What about the GI50 (SK-OV-3) of the same compound?
Answer: 25.9 µM (inactive)

Question: And the GI50 (SN12C)?
Answer: 27.4 µM (inactive)

Question: What about the GI50 (SNB-19) of the same compound?
Answer: 24 µM (inactive)

Question: And the GI50 (SR)?
Answer: 30.9 µM (inactive)

Question: And the GI50 (SW-620)?
Answer: 16.6 µM (inactive)

Question: What about the GI50 (T47D) of the same compound?
Answer: 23.8 µM (inactive)

Question: What about the GI50 (TK-10) of the same compound?
Answer: 29.9 µM (inactive)

Question: What about the GI50 (U-251) of the same compound?
Answer: 27.9 µM (inactive)

Question: What about the GI50 (UACC-257) of the same compound?
Answer: 18.6 µM (inactive)

Question: And the GI50 (UACC-62)?
Answer: 24.2 µM (inactive)

Question: What about the GI50 (UO-31) of the same compound?
Answer: 28.4 µM (inactive)

Question: For `COC(=O)C(O)P(=O)(OC)OC` (stereo not drawn), which GI50 (786-0) is on record?
Answer: > 100 µM (inactive)

Question: And the GI50 (A498)?
Answer: > 100 µM (inactive)

Question: What about the GI50 (A549) of the same compound?
Answer: > 100 µM (inactive)

Question: And the GI50 (ACHN)?
Answer: > 100 µM (inactive)

Question: What about the GI50 (BT-549) of the same compound?
Answer: > 100 µM (inactive)

Question: And the GI50 (CAKI-1)?
Answer: > 100 µM (inactive)

Question: What about the GI50 (COLO 205) of the same compound?
Answer: > 100 µM (inactive)

Question: What about the GI50 (DU-145) of the same compound?
Answer: > 100 µM (inactive)

Question: And the GI50 (EKVX)?
Answer: > 100 µM (inactive)

Question: What about the GI50 (HCT-116) of the same compound?
Answer: > 100 µM (inactive)

Question: And the GI50 (HCT-15)?
Answer: > 100 µM

Question: And the GI50 (HL-60)?
Answer: > 100 µM (inactive)

Question: What about the GI50 (HOP-62) of the same compound?
Answer: > 100 µM (inactive)

Question: What about the GI50 (HOP-92) of the same compound?
Answer: > 100 µM (inactive)

Question: And the GI50 (HT-29)?
Answer: > 100 µM (inactive)

Question: And the GI50 (Hs-578T)?
Answer: > 100 µM (inactive)

Question: And the GI50 (IGROV-1)?
Answer: > 100 µM (inactive)

Question: What about the GI50 (K562) of the same compound?
Answer: > 100 µM (inactive)

Question: What about the GI50 (KM12) of the same compound?
Answer: > 100 µM (inactive)

Question: And the GI50 (LOX IMVI)?
Answer: > 100 µM (inactive)

Question: What about the GI50 (M14) of the same compound?
Answer: > 100 µM (inactive)

Question: And the GI50 (MCF7)?
Answer: > 100 µM (inactive)

Question: And the GI50 (MDA-MB-231)?
Answer: > 100 µM (inactive)

Question: What about the GI50 (MDA-MB-435) of the same compound?
Answer: > 100 µM (inactive)

Question: What about the GI50 (MDA-N) of the same compound?
Answer: > 100 µM (inactive)

Question: What about the GI50 (MOLT-4) of the same compound?
Answer: > 100 µM (inactive)

Question: And the GI50 (Malme-3M)?
Answer: > 100 µM (inactive)

Question: And the GI50 (NCI-H226)?
Answer: > 100 µM (inactive)

Question: And the GI50 (NCI-H23)?
Answer: > 100 µM (inactive)

Question: And the GI50 (NCI-H522)?
Answer: > 100 µM (inactive)

Question: And the GI50 (NCI/ADR-RES)?
Answer: > 100 µM (inactive)

Question: And the GI50 (OVCAR-3)?
Answer: > 100 µM (inactive)

Question: What about the GI50 (OVCAR-4) of the same compound?
Answer: > 100 µM (inactive)

Question: What about the GI50 (OVCAR-5) of the same compound?
Answer: > 100 µM (inactive)

Question: What about the GI50 (OVCAR-8) of the same compound?
Answer: > 100 µM (inactive)

Question: What about the GI50 (PC-3) of the same compound?
Answer: > 100 µM (inactive)

Question: And the GI50 (RPMI-8226)?
Answer: > 100 µM (inactive)

Question: And the GI50 (RXF 393)?
Answer: > 100 µM (inactive)

Question: What about the GI50 (SF-268) of the same compound?
Answer: > 100 µM (inactive)

Question: What about the GI50 (SF-295) of the same compound?
Answer: > 100 µM (inactive)

Question: And the GI50 (SK-MEL-28)?
Answer: > 100 µM (inactive)

Question: And the GI50 (SK-MEL-2)?
Answer: > 100 µM (inactive)

Question: And the GI50 (SK-MEL-5)?
Answer: > 100 µM (inactive)

Question: And the GI50 (SK-OV-3)?
Answer: > 100 µM (inactive)

Question: What about the GI50 (SN12C) of the same compound?
Answer: > 100 µM (inactive)

Question: What about the GI50 (SNB-19) of the same compound?
Answer: > 100 µM (inactive)

Question: And the GI50 (SR)?
Answer: > 100 µM (inactive)

Question: What about the GI50 (SW-620) of the same compound?
Answer: > 100 µM (inactive)

Question: And the GI50 (T47D)?
Answer: > 100 µM (inactive)

Question: And the GI50 (U-251)?
Answer: > 100 µM (inactive)

Question: And the GI50 (UACC-257)?
Answer: > 100 µM (inactive)

Question: What about the GI50 (UACC-62) of the same compound?
Answer: > 100 µM (inactive)

Question: And the GI50 (UO-31)?
Answer: > 100 µM (inactive)

Reference: ChEMBL document CHEMBL1201862, “PubChem BioAssay data set” (2004)
